Literature values as cited in patent US20260240855A1 (priority 2023, published 2026).

Tested on: extracellular signal-regulated kinase (ERK)
Settings: preclinical studies

In the case of `C=CC(=O)N1CCN(c2nc(=O)n(-c3c(C)ccnc3C(C)C)c3nc(-c4c(O)cccc4F)c(F)cc23)[C@@H](C)C1` (atropisomer, axis not shown; (M)) [Sotorasib, 6-fluoro-7-(2-fluoro-6-hydroxyphenyl)-(1M)-1-[4-methyl-2-(propan-2-yl)pyridin-3-yl]-4-[(2S)-2-methyl-4-(prop-2-enoyl)piperazin-1-yl]pyrido[2,3-d]pyrimidin-2(1H)-one], the “phosphorylation of extracellular signal-regulated kinase (ERK)” value is listed as “inhibited nearly all detectable phosphorylation”.
